Assay results taken from patent publication US20080027094A1, “Tropane Compounds and Pharmaceutical Compositions Comprising the Same as an Active Ingredient” (Ono Pharmaceutical Co., Ltd., priority 2004, published 2008).

Assays:
[1] = tested on: metacholine-induced airway-constriction; experiment: Effect on the airways constriction in guinea pigs (Konzett-Rossler method); type: in vivo; conditions: Hartley male guinea pigs, intratracheal application, metacholine 10 μg/kg i.v.; minimum dose suppressing not less than 80% within 60 min
Experimental: The present experiment was carried out with Hartley male guinea pigs (supplied by Nippon SLC Co.) as divided into groups each consisting of 3 to 4 animals. The guinea pigs were anesthetized with pentobarbital sodium (60 mg/kg, given intraperitoneally), and were subjected individually to insertion of a cannula into the airways. Each airway cannula was connected with a volume-controlled respirator (Model SN-480-N, manufactured by Shinano Seisakusho Co.) to perform artificial respiration at a ventilation volume of 5 mL and at a ventilation rate of ca. 70/min. For the purpose of application of metacholine, a catheter was inserted into the carotid vein. […] Prior to application of the test substance, and from 5 to 60 min. thereafter, respectively, metacholine was applied intravenously (10 μg/kg) to induce the airway-constriction, and the pressure at which air was passed through the airways, or the air-passage pressure through the airways, was measured with use of the Konzett-Rossler method. The airways-constriction ratio was taken as a proportion, expressed in percentage, of the air-passage pressure through the airways measured after individual application of the test substance to the maximum air-passage pressure through the airways found when the airways were completely clogged and occluded. […]

[2] = tested on: metacholine-induced bladder constriction; experiment: Effects on the bladder constriction in guinea pigs; type: in vivo; conditions: Hartley male guinea pigs, intratracheal application, metacholine 10 μg/kg i.v.; maximum dose suppressing less than 20% at all points within 60 min
Experimental: The present experiment was carried out with Hartley male guinea pigs (supplied by Nippon SLC Co.) as divided into groups each consisting of 3 to 4 animals. The guinea pigs were anesthetized with a urethane ([…], given subcutaneously), and were subjected individually to insertion of a catheter into the carotid vein in order to apply metacholine. […] All the ureters were ligated in order to prevent the urine from flowing into the bladder from the kidney. The internal pressure of the bladder was measured by means of a pressure transducer, whereby the bladder was filled with physiological saline to such an extent as might exert lower pressure than the urination threshold pressure against the inner wall. […] Prior to application of the test substance, and from 5 to 60 min. thereafter, respectively, metacholine was applied intravenously (10 μg/kg) to induce the bladder constriction, and the internal pressure of the bladder was measured in a time-course manner. The bladder-constriction ratio was taken as the proportion of the internal pressure of the bladder measured after application of the test substance to the internal pressure of the bladder before application of the test substance. […]

Row | Compound | effective dose for the airway-constriction suppression [1] [µg/kg] | no-effective dose for the bladder constriction [2] [µg/kg]
1 | CCOC(=O)COc1cccc(C[N@+]2(C)[C@@H]3CC[C@H]2C[C@@H](OC(=O)C(O)(c2cccs2)c2cccs2)C3)c1.[Br-] [Example 14 (4), (1R,3r,5S,8s)-8-[3-(2-Ethoxy-2-oxoethoxy)benzyl]-3-({hydroxy[di(2-thienyl)]acetyl}oxy)-8-methyl-8-azoniabicyclo[3.2.1]octane bromide] | 3 | 30
2 | C[N+]1(C)[C@@H]2C[C@@H](OC(=O)C(O)(c3cccs3)c3cccs3)C[C@H]1[C@@H]1O[C@@H]12 [tiotropium] | 10 | 1
